The record followed here is paper PMC9946934, “Reconstitution of human pyroptotic cell death in Saccharomyces cerevisiae” (Scientific Reports, 2023).

Format in all cases: cell-based, Saccharomyces cerevisiae
In test [1] the target is T1, caspase-8 (Homo sapiens, UniProt Q14790).
T1 construct: gene CASP8
Put plainly: growth rescue of S. cerevisiae expressing human caspase-8. From the text:
growth rescue of S. cerevisiae expressing human caspase-8 on caspase-8 | higher concentrations of QVD were needed to restore the growth rate of yeast expressing caspase-8

Test [2] deals with T2, caspase-1 (Homo sapiens, UniProt P29466).
T2 construct: gene CASP1
T2 sequence (P29466 1-404): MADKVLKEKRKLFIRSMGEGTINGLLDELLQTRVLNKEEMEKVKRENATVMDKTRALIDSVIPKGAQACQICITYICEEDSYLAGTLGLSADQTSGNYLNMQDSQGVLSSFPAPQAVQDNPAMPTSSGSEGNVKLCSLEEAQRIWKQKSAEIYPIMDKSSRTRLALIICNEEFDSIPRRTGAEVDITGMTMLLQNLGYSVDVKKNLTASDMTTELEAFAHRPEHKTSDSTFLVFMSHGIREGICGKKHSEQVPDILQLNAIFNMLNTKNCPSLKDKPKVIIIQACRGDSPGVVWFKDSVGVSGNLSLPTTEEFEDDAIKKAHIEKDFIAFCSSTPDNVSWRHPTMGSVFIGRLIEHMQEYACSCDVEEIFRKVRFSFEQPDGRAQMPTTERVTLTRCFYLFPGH
Put plainly: growth rescue of S. cerevisiae expressing human caspase-1.

The target of test [3] is T3, caspase-3 (Homo sapiens, UniProt P42574).
T3 construct: gene CASP3; active caspase-3 fused to β-galactosidase (caspase-3–LacZ)
T3 sequence (P42574 29-175): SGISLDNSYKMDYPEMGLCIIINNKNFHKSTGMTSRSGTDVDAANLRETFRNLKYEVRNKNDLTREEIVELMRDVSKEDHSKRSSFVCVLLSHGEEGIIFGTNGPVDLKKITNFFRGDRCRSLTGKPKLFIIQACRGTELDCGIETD
T3 sequence (P42574 176-277): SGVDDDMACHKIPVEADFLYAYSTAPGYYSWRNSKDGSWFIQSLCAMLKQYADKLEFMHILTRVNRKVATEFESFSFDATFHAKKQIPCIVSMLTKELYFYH
Put plainly: growth rescue of S. cerevisiae expressing active human caspase-3.

The IC50 is the concentration that inhibits the measured activity by half. Read a low IC50 as greater potency.

T1 sequence (Q14790 whole entry): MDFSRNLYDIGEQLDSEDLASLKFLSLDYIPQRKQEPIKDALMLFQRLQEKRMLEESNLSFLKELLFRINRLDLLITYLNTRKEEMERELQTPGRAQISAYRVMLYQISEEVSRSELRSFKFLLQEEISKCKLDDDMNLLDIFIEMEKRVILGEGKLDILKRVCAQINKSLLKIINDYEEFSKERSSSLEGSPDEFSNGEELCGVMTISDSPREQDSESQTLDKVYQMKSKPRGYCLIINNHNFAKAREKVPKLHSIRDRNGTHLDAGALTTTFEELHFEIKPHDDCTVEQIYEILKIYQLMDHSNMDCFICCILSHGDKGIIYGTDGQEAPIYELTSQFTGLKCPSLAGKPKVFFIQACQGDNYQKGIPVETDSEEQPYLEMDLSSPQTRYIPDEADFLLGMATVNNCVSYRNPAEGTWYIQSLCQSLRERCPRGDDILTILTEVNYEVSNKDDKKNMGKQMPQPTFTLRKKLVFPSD

Consider `CC(C)[C@H](NC(=O)c1ccc2ccccc2n1)C(=O)N[C@@H](CC(=O)O)C(=O)COc1c(F)cccc1F` [QVD, Q-VD-OPh], for which the IC50 in test [1] stood at 30 µM; in test [2] it was 21.4 µM; in test [3], 1.7 µM.
